According to PubChem BioAssay (NCI):
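Cells were grown in 96-well plates and exposed to each compound for 48 hours at five concentrations; endpoints were interpolated linearly between bracketing concentrations, or set to the highest concentration if not reached. Here, GI50 denotes the concentration required for 50% inhibition of growth. TGI marks complete inhibition of growth.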

Columns and labels:
Experiment in all cases: NCI-60 cell line screen, 48 h
SK-MEL-28 melanoma = test system: SK-MEL-28 melanoma
HCC-2998 colon = test system: HCC-2998 colon
OVCAR-8 ovarian = test system: OVCAR-8 ovarian
BT-549 breast = test system: BT-549 breast
OVCAR-5 ovarian = test system: OVCAR-5 ovarian
HOP-62 NSCLC = test system: HOP-62 NSCLC
SF-295 CNS = test system: SF-295 CNS
SF-268 CNS = test system: SF-268 CNS
EKVX NSCLC = test system: EKVX NSCLC
SNB-19 CNS = test system: SNB-19 CNS

| SMILES | GI50 (SK-MEL-28 melanoma) | TGI (SK-MEL-28 melanoma) | GI50 (HCC-2998 colon) | TGI (HCC-2998 colon) | GI50 (OVCAR-8 ovarian) | TGI (OVCAR-8 ovarian) | GI50 (BT-549 breast) | GI50 (OVCAR-5 ovarian) | TGI (OVCAR-5 ovarian) | GI50 (HOP-62 NSCLC) | TGI (HOP-62 NSCLC) | GI50 (SF-295 CNS) | TGI (SF-295 CNS) | GI50 (SF-268 CNS) | TGI (SF-268 CNS) | GI50 (EKVX NSCLC) | TGI (EKVX NSCLC) | GI50 (SNB-19 CNS) | TGI (SNB-19 CNS) | TGI (BT-549 breast) |
| --- | --- | --- | --- | --- | --- | --- | --- | --- | --- | --- | --- | --- | --- | --- | --- | --- | --- | --- | --- | --- |
| CCOc1ccc(-c2cnnn2-c2nonc2-n2cccc2)cc1 | 402 nM | > 100 µM | 0.364 µM | > 33 µM | 439 nM | > 100 µM | 363 nM | 1.08 µM | > 100 µM | 421 nM | > 100 µM | 0.295 µM | > 91.2 µM | 736 nM | > 100 µM | 569 nM | > 100 µM | 0.729 µM | > 100 µM | – |
| N#Cc1ncc(-c2ccc(C(F)(F)F)cc2)c(NCc2cc(C(F)(F)F)cc(C(F)(F)F)c2)n1 | 5170 nM | > 100 µM | 4.17 µM | > 100 µM | 3690 nM | > 100 µM | 5880 nM | 8.9 µM | > 100 µM | 4730 nM | 39.2 µM | 2.78 µM | 29.1 µM | 8170 nM | > 100 µM | – | – | 4.84 µM | 63.3 µM | > 100 µM |
| C=C(C)C1Cc2c(cc(OC)c3c(=O)c4cccc(O)c4oc23)O1 (stereo unspecified) | – | 72 µM | – | > 100 µM | – | 59.5 µM | – | – | > 100 µM | – | 36.5 µM | – | 41.6 µM | – | 43.4 µM | – | > 100 µM | – | 98.4 µM | 34.8 µM |
| CC(C)(O)C#Cc1ccc(/C=C/C(=O)c2ccccc2)s1 | 16000 nM | 30.2 µM | 16.6 µM | 30.7 µM | 15900 nM | 29.9 µM | 16200 nM | 16.5 µM | 32 µM | – | – | 17.7 µM | 35.5 µM | 16700 nM | 32.8 µM | 17900 nM | 32 µM | 16.9 µM | 31.7 µM | 30.8 µM |
| Clc1ccc(/C=C/c2cc(N3CCOCC3)c3cc(Cl)c(Cl)cc3n2)cc1 | > 100000 nM | > 100 µM | > 100 µM | > 100 µM | > 100000 nM | > 100 µM | 706 nM | > 100 µM | > 100 µM | > 100000 nM | > 100 µM | > 100 µM | > 100 µM | > 100000 nM | > 100 µM | – | – | > 100 µM | > 100 µM | > 40.2 µM |
| CCCCCCc1cc2cc(-c3nc4ccccc4[nH]3)c(=Nc3ccccc3C)oc2cc1O | 1880 nM | 3.73 µM | 22.2 µM | > 77.3 µM | 2260 nM | 6.05 µM | 1830 nM | 3.64 µM | 29 µM | 1950 nM | 4.57 µM | 4.24 µM | 17.8 µM | 2650 nM | 8.45 µM | – | – | 3.58 µM | 22 µM | 3.55 µM |
| CCN1/C(=C/C=C/c2n(-c3ccccc3)c3ccc(-c4nc5ccccc5s4)cc3[n+]2CC)N(c2ccccc2)c2ccc(-c3nc4ccccc4s3)cc21 | 488 nM | 5.82 µM | 1.69 µM | > 31.1 µM | 304 nM | 5.82 µM | 500 nM | 1.53 µM | > 50 µM | – | – | – | – | 525 nM | > 50 µM | 387 nM | > 50 µM | 0.369 µM | > 50 µM | 3.28 µM |
| c1ccc2c(c1)sc1c3cnccc3ccc21 | – | > 100 µM | – | > 100 µM | – | – | – | – | > 100 µM | – | > 100 µM | – | > 100 µM | – | > 100 µM | – | > 100 µM | – | > 100 µM | > 100 µM |
